Data from US8993574B2, “Pyrrole antifungal agents” (F2G Ltd, priority 2008, dated 2015).
In brackets after ≈: the same amount, converted by molar mass.

Experiments:
Format in all cases: cell-based
[1] = system: Aspergillus fumigatus AF210; test: MIC, YAG medium; conditions: Aspergillus fumigatus, 24 h at 35° C, MIC banded into grades, read-out: MIC grade, A. fumigatus 210
Protocol: (§1) Between 1 and 5 mgs of compound were accurately weighed out into a sterile Eppendorf tube. The compound was dissolved in DMSO to give a solution containing 5 mg/mL. Tubes were stored at −20° C. until required.
(§2) On the day of testing thawed solutions were vortex mixed to ensure homogeneity. 30 μL of solution was removed and added to 570 μL of sterile water in a separate sterile Eppendorf. The thoroughly mixed solution was used to prepare a series of doubling dilutions in water, in a deep well plate. Thirteen replicate plates were prepared using a Minitrak by aspirating 20 μL from each well into eleven clear polystyrene 96 well plates.
(§3) Spores of Aspergillus spp. (Aspergillus fumigatus [two strains], Aspergillus terreus [two strains], Aspergillus niger and Aspergillus flavus) were harvested from cultures grown on Sabarauds agar for 5 days, and resuspended in PBS/Tween 80 to approx 1×10^7 cfu/mL. Each organism suspension was diluted in YAG medium (1% glucose, 1% ammonium chloride and 0.5% yeast extract) to 0.5−2×10^4 cfu/mL. 80 μL of an organism suspension was added to each well of the plate containing drug dilutions.
(§4) This produced MIC plates with a drug range 50-0.05 mg/L and organism inocula of 1−2×10^4 cfu/mL for Aspergillus spp. All plates were incubated for 24 h at 35° C. Growth was assessed by monitoring the optical density at 485 nm for each well. The MIC of a compound is the lowest drug concentration that inhibits growth of an organism by >70% compared with a drug free control. MICs are recorded as mg/L. In cases where the MIC of an organism is […] mg/L the MIC is repeated using a concentration range of 0.5-0.0005 mg/L.
(§5) The following organisms were tested: Aspergillus flavus, Aspergillus fumigatus AF293 and AF210, Aspergillus niger, Aspergillus terreus AT4 and AT49, Candida albicans, Candida glabrata, Candida krusei, Candida parapsilosis and Candida tropicalis.

Aspergillus flavus [2] = test: MIC, YAG medium; conditions: Aspergillus flavus, 24 h, 24 h at 35° C, MIC banded into grades, read-out: MIC grade, A. flavus
Protocol: as §1, §2, §3, §4, §5

Aspergillus niger [3] = test: MIC, YAG medium; conditions: Aspergillus niger, 24 h at 35° C, MIC banded into grades, read-out: MIC grade, A. niger
Protocol: as §1, §2, §3, §4, §5

Aspergillus terreus AT4 [4] = test: MIC, YAG medium; conditions: Aspergillus terreus, 24 h at 35° C, MIC banded into grades, read-out: MIC grade, A. terreus
Protocol: as §1, §2, §3, §4, §5

Aspergillus terreus AT49 [5] = test: MIC, YAG medium; conditions: Aspergillus terreus, 24 h at 35° C, MIC banded into grades, read-out: MIC grade, A. terreus 49
Protocol: as §1, §2, §3, §4, §5

[6] = system: Aspergillus fumigatus AF293; test: MIC, YAG medium; conditions: Aspergillus fumigatus, 24 h at 35° C, MIC banded into grades, read-out: MIC grade, A. fumigatus
Protocol: as §1, §2, §3, §4, §5

[7] = system: Aspergillus fumigatus AF210; test: MIC, RPMI medium; conditions: Aspergillus fumigatus, AF210, MIC banded into grades, read-out: MIC grade, A. fumigatus 210
Protocol: as §1, §2
(§6) Assays were also performed in RPMI medium for both Aspergillus spp. (strains described above) and Candida spp. (Candida albicans, Candida glabrata, Candida krusei, Candida parapsilosis and Candida tropicalis). To perform MIC tests in this medium, dilutions of compounds are prepared in microtitre plates as described above. Fungal strains to be tested are grown and harvested in an identical manner to that described above, and each organism suspension was diluted in RPMI medium, containing 2% glucose and 0.135 M MOPS buffer (pH 7.0) to 0.5-2×10^4 cfu/mL, rather than in YAG medium. 80 μL of an organism suspension was added to each well of the plate containing drug dilutions.
(§7) This produced MIC plates with a drug range 50-0.05 mg/L and organism inocula of 1−2×10^4 cfu/mL. All plates were incubated for 24-48 h at 35° C. Growth was assessed by monitoring the optical density at 485 nm for each well. The MIC of a compound is the lowest drug concentration that inhibits growth of an organism by >80% compared with a drug free control.
as §5

Aspergillus flavus [8] = test: MIC, RPMI medium; conditions: Aspergillus flavus, MIC banded into grades, read-out: MIC grade, A. flavus
Protocol: as §1, §2, §6, §7, §5

Aspergillus niger [9] = test: MIC, RPMI medium; conditions: Aspergillus niger, MIC banded into grades, read-out: MIC grade, A. niger
Protocol: as §1, §2, §6, §7, §5

Aspergillus terreus AT4 [10] = test: MIC, RPMI medium; conditions: Aspergillus terreus, AT4, MIC banded into grades, read-out: MIC grade, A. terreus
Protocol: as §1, §2, §6, §7, §5

Aspergillus terreus AT49 [11] = test: MIC, RPMI medium; conditions: Aspergillus terreus, AT49, MIC banded into grades, read-out: MIC grade, A. terreus 49
Protocol: as §1, §2, §6, §7, §5

[12] = system: Aspergillus fumigatus AF293; test: MIC, RPMI medium; conditions: Aspergillus fumigatus, AF293, MIC banded into grades, read-out: MIC grade, A. fumigatus
Protocol: as §1, §2, §6, §7, §5

| Structure (SMILES) | MIC [1] [µg/mL] | MIC (Aspergillus flavus [2]) [µg/mL] | MIC (Aspergillus niger [3]) [µg/mL] | MIC (Aspergillus terreus AT4 [4]) [µg/mL] | MIC (Aspergillus terreus AT49 [5]) [µg/mL] | MIC [6] [µg/mL] | MIC [7] [µg/mL] | MIC (Aspergillus flavus [8]) [µg/mL] | MIC (Aspergillus niger [9]) [µg/mL] | MIC (Aspergillus terreus AT4 [10]) [µg/mL] | MIC (Aspergillus terreus AT49 [11]) [µg/mL] | MIC [12] [µg/mL] |
| --- | --- | --- | --- | --- | --- | --- | --- | --- | --- | --- | --- | --- |
| Cc1cc(C)nc(N2CCN(c3ccc(NC(=O)C(=O)c4c(-c5ccco5)cc(C)n4C)cc3)CC2)c1 [Example 12, N-{4-[4-(4,6-Dimethyl-pyridin-2-yl)-piperazin-1-yl]-phenyl}-2-(3-furan-2-yl-1,5-dimethyl-1H-pyrrol-2-yl)-2-oxo-acetamide] | < 1 | < 1 | < 1 | < 1 | < 1 | < 1 | < 1 | < 1 | < 1 | < 1 | < 1 | < 1 |
| Cc1cc(C)nc(N2CCN(c3ccc(NC(=O)C(=O)c4c(C(C)C)cc(C)n4C)cc3)CC2)c1 [Example 14, N-{4-[4-(4,6-Dimethyl-pyridin-2-yl)-piperazin-1-yl]-phenyl}-2-(3-isopropyl-1,5-dimethyl-1H-pyrrol-2-yl)-2-oxo-acetamide] | < 1 | < 1 | < 1 | < 1 | < 1 | < 1 | < 1 | < 1 | < 1 | < 1 | < 1 | < 1 |
| Cc1cc(C)nc(N2CCN(c3ccc(NC(=O)C(=O)c4c(C5CCOCC5)cc(C)n4C)cc3)CC2)c1 [Example 15, N-{4-[4-(4,6-Dimethyl-pyridin-2-yl)-piperazin-1-yl]-phenyl}-2-[1,5-dimethyl-3-(tetrahydro-pyran-4-yl)-1H-pyrrol-2-yl]-2-oxo-acetamide] | < 1 | < 1 | < 1 | < 1 | < 1 | < 1 | < 1 | < 1 | < 1 | < 1 | < 1 | < 1 |
| Cc1cc(-c2ccccc2)c(C(=O)C(=O)Nc2cccc3ccccc23)n1C [Example 16, 2-(1,5-Dimethyl-3-phenyl-1H-pyrrol-2-yl)-N-naphthalen-1-yl-2-oxo-acetamide] | < 1 | < 1 | < 1 | < 1 | < 1 | < 1 | 1 to 10 (≈ 2.71 to 27.1 µM) | < 1 | < 1 | < 1 | < 1 | < 1 |
| Cc1cc(C)nc(N2CCN(c3ccc(NC(=O)C(=O)c4c(-c5ccccc5)c(C)cn4C)cc3)CC2)c1 [Example 18, 2-(1,4-Dimethyl-3-phenyl-1H-pyrrol-2-yl)-N-{4-[4-(4,6-dimethyl-pyridin-2-yl)-piperazin-1-yl]-phenyl}-2-oxo-acetamide] | < 1 | < 1 | > 10 | < 1 | < 1 | < 1 | < 1 | 1 to 10 (≈ 1.97 to 19.7 µM) | > 10 | < 1 | < 1 | < 1 |

Further lines, results first:

| MIC [1] [µg/mL] | MIC (Aspergillus flavus [2]) [µg/mL] | MIC (Aspergillus niger [3]) [µg/mL] | MIC (Aspergillus terreus AT4 [4]) [µg/mL] | MIC (Aspergillus terreus AT49 [5]) [µg/mL] | MIC [6] [µg/mL] | MIC [7] [µg/mL] | MIC (Aspergillus flavus [8]) [µg/mL] | MIC (Aspergillus niger [9]) [µg/mL] | MIC (Aspergillus terreus AT4 [10]) [µg/mL] | MIC (Aspergillus terreus AT49 [11]) [µg/mL] | MIC [12] [µg/mL] | Structure (SMILES) |
| --- | --- | --- | --- | --- | --- | --- | --- | --- | --- | --- | --- | --- |
| > 10 | 1 to 10 (≈ 1.5 to 15 µM) | > 10 | > 10 | 1 to 10 (≈ 1.5 to 15 µM) | > 10 | > 10 | > 10 | > 10 | > 10 | > 10 | > 10 | Cc1cc(C)nc(N2CCN(c3ccc(NC(=O)C(=O)c4c(-c5ccccc5)cc(C)n4C)cc3COCCCN3CCOCC3)CC2)c1 [Example 10, 2-(1,5-Dimethyl-3-phenyl-1H-pyrrol-2-yl)-N-[4-[4-(4,6-dimethyl-pyridin-2-yl)-piperazin-1-yl]-3-(3-morpholin-4-yl-propoxymethyl)-phenyl]-2-oxo-acetamide] |
| < 1 | < 1 | < 1 | < 1 | < 1 | < 1 | < 1 | < 1 | < 1 | < 1 | < 1 | < 1 | Cc1cc(C)nc(N2CCN(c3ccc(NC(=O)C(=O)c4c(-c5ccccc5)cc(C)n4C)cc3Cl)CC2)c1 [Example 11, N-{3-Chloro-4-[4-(4,6-dimethyl-pyridin-2-yl)-piperazin-1-yl]-phenyl}-2-(1,5-dimethyl-3-phenyl-1H-pyrrol-2-yl)-2-oxo-acetamide] |
| 1 to 10 (≈ 1.64 to 16.4 µM) | 1 to 10 (≈ 1.64 to 16.4 µM) | 1 to 10 (≈ 1.64 to 16.4 µM) | 1 to 10 (≈ 1.64 to 16.4 µM) | 1 to 10 (≈ 1.64 to 16.4 µM) | 1 to 10 (≈ 1.64 to 16.4 µM) | > 10 | > 10 | > 10 | > 10 | > 10 | > 10 | Cc1cc(C)nc(N2CCN(c3ccc(NC(=O)C(=O)c4c(-c5ccccc5)cc(C)n4C)cc3COCCN(C)C)CC2)c1 [Example 17, N-{3-(2-Dimethylamino-ethoxymethyl)-4-[4-(4,6-dimethyl-pyridin-2-yl)-piperazin-1-yl]-phenyl}-2-(1,5-dimethyl-3-phenyl-1H-pyrrol-2-yl)-2-oxo-acetamide] |
| > 10 | 1 to 10 (≈ 1.48 to 14.8 µM) | > 10 | > 10 | 1 to 10 (≈ 1.48 to 14.8 µM) | > 10 | > 10 | > 10 | > 10 | > 10 | > 10 | > 10 | Cc1cc(C)nc(N2CCN(c3ccc(NC(=O)C(=O)c4c(-c5ccccc5)cc(C)n4C)cc3COCCCN3CCN(C)CC3)CC2)c1 [Example 19, 2-(1,5-Dimethyl-3-phenyl-1H-pyrrol-2-yl)-N-{4-[4-(4,6-dimethyl-pyridin-2-yl)-piperazin-1-yl]-3-[3-(4-methyl-piperazin-1-yl)-propoxymethyl]-phenyl}-2-oxo-acetamide] |
| < 1 | > 10 | > 10 | < 1 | < 1 | > 10 | > 10 | > 10 | > 10 | > 10 | 1 to 10 (≈ 1.87 to 18.7 µM) | > 10 | Cc1cc(C)nc(N2CCN(c3ccc(NC(=O)C(=O)c4c(-c5ccccc5)cc(C(C)C)n4C)cc3)CC2)c1 [Example 20, N-{4-[4-(4,6-Dimethyl-pyridin-2-yl)-piperazin-1-yl]-phenyl}-2-(5-isopropyl-1-methyl-3-phenyl-1H-pyrrol-2-yl)-2-oxo-acetamide] |
| < 1 | < 1 | < 1 | < 1 | < 1 | < 1 | < 1 | < 1 | < 1 | < 1 | < 1 | < 1 | Cc1cc(C)nc(N2CCN(c3ccc(NC(=O)C(=O)c4c(-c5ccccc5)cc(C)n4C)c(Cl)c3)CC2)c1 [Example 21, N-{2-Chloro-4-[4-(4,6-dimethyl-pyridin-2-yl)-piperazin-1-yl]-phenyl}-2-(1,5-dimethyl-3-phenyl-1H-pyrrol-2-yl)-2-oxo-acetamide] |
